“Also recorded” adds a separate entry of the source. Read-outs that look alike come from different tables or passages of the source.
How the values were obtained:
MDA-MB-468 = assay: Proliferation rate of MDA-MB-468 cells overexpressing SLC7A11 with 1 μM CB-839; format: cell-based; settings: SLC7A11 overexpression, RPMI vs RPMI (10 μM cystine)
Protocol: (§1) Proliferation rates for MDA-MB-468 and AU565 cell lines overexpressing SLC7A11 or not (from FIG. 4G) in RPMI or RPMI (10 μM cystine) with vehicle (DMSO) or 1 μM CB-839 are shown. The values represent the mean and the error bars represent ±SEM.
(§2) Cell lines growing in log phase in RPMI medium were trypsinized, counted and plated into 6 well dishes in 2 mL of RPMI medium and incubated overnight. Initial seeding density was 20,000 cells/well for A549 cells, or 50,000 cells for MCF7, AU565 and MDA-MB-468 cells. The next day, a plate of cells was trypsinized and counted to provide a number of cells at the start of the experiment. Cells were then washed twice with 2 mL of PBS, and […] of the indicated media premixed with indicated compounds or vehicles was added. Cells were then counted 4 days after adding the indicated medias. Proliferation rate was determined using the following formula:
(§3) Proliferation rate in doublings/day=[Log 2(Final Day 4 cell count/Initial Day 0 cell count)]/4 days. Cells were counted using a Cellometer Auto t$ Plus Cell Counter (Nexcelom Bioscience).

AU565 = assay: Proliferation rate of AU565 cells overexpressing SLC7A11 with 1 μM CB-839; format: cell-based; settings: SLC7A11 overexpression, RPMI vs RPMI (10 μM cystine)
Protocol: as §1, §2, §3

breast cancer cell lines = settings: RPMI, cited from earlier work
A549 cells [1] = assay: 13C5-glutamine tracing of glutamine anaplerosis in cultured A549 cells; format: cell-based, human; settings: A549 cells cultured 8 h; high cystine (208 μM added to adult bovine serum)
Excerpt: Each medium included ^13C5-glutamine added to ˜33% enrichment (n=3). […] For all parts of the figure, the values represent the mean and the error bars represent ±SEM.

A549 cells [2] = assay: Proliferation rate of A549 cells with vehicle or 1 μM CB-839 in different media; format: cell-based, human; settings: cystine at RPMI/DMEM levels
Protocol: Each medium included ^13C5-glutamine added to ˜33% enrichment (n=3). […] For all parts of the figure, the values represent the mean and the error bars represent ±SEM. […] In FIG. 8A, A549 cells were cultured in adult bovine serum with DMEM nutrient levels, adult bovine serum with DMEM amino acid levels, and adult bovine serum with DMEM amino acid levels but without supplementation of the amino acids indicated in each column. For each medium, the proliferation rate for cells grown with vehicle (DMSO) or 1 μM CB-839 is shown (n=3). […] Cell lines growing in log phase in RPMI medium were trypsinized, counted and plated into 6 well dishes in 2 mL of RPMI medium and incubated overnight. […] The next day, a plate of cells was trypsinized and counted to provide a number of cells at the start of the experiment. […] Cells were then counted 4 days after adding the indicated medias. Proliferation rate was determined using the following formula: Proliferation rate in doublings/day=[Log 2(Final Day 4 cell count/Initial Day 0 cell count)]/4 days. Cells were counted using a Cellometer Auto t$ Plus Cell Counter (Nexcelom Bioscience).

A549 tumors = assay: Tumor glutamine anaplerosis in A549 tumor-bearing mice after oral cystine; format: in vivo; settings: oral cystine before 13C5-glutamine bolus
Protocol: In FIG. 5A, nu/nu mice were treated orally with 2.4 g/kg cystine and plasma from these animals was serially collected at the indicated time points. Cystine concentration of the plasma was determined by GC-MS. In FIG. 5B, A549 tumor-bearing mice were treated (n=4) or not (n=3) with oral cystine prior to bolus ^13C5-glutamine injection prior to harvesting the plasma and tumors. […] In FIG. 5C, intratumoral glutamate (m+5) and α-ketoglutarate (m+5) labeling from FIG. 5B were normalized to tumor glutamine (m+5).

| SMILES | sensitivity of proliferation to CB-839 (MDA-MB-468) | sensitivity of proliferation to CB-839 (AU565) | IC50 (breast cancer cell lines; 'resistant' breast cancer cell lines, maximal CB-839 tested 1 μM) [nM] | IC50 (breast cancer cell lines; sensitive breast cancer cell lines) [nM] | effect on glutamine anaplerosis (fractional labeling from 13C5-glutamine) (A549 cells [1]) | effect of cystine on CB-839 inhibition of proliferation (A549 cells [2]) | effect on tumor glutamine anaplerosis in vivo (A549 tumors) |
| --- | --- | --- | --- | --- | --- | --- | --- |
| O=C(Cc1cccc(OC(F)(F)F)c1)Nc1ccc(CCCCc2nnc(NC(=O)Cc3ccccn3)s2)nn1 [CB-839] | cystine-induced CB-839 sensitivity | cystine-induced CB-839 sensitivity | > 1000 | < 1000 | – | – | – |
| N[C@@H](CSSC[C@H](N)C(=O)O)C(=O)O [cystine] | – | – | – | – | enhance glutamine anaplerosis | potentiate the effects of the glutaminase inhibitor CB-839; also recorded: potentiates the glutaminase inhibitor CB-839 | increases tumor glutamine anaplerosis in vivo |

From US10786471B2, “Methods and products related to glutaminase inhibitors” (Massachusetts Institute of Technology, priority 2017, dated 2020)
